Source: patent US8158789B2, “Arginine derivatives with NP-I antagonistic activity” (Ark Therapeutics Group Ltd., priority 2006, dated 2012)

Key:
[1] = biological target: T1, neuropilin-1 (NP-1) (Homo sapiens, UniProt O14786); assay: 125I-VEGF-A165 binding; conditions: assay not given; 125I-VEGF-A165 binding is the only concentration-response binding method described
T1 construct: expressed in transfected cells; host or cells: porcine aortic endothelial cells (PAE/NP-1), hygromycin B selection
Method: (§1) Porcine aortic endothelial cells expressing neuropilin-1 (PAE/NP-1) were cultured in Ham's F12 medium containing 10% fetal bovine serum (FBS) and 25 μg/ml hygromycin B. PAE cells expressing KDR (PAE/KDR) were grown in Ham's F12 medium containing 10% FBS and 250 μg/ml […] G418. Human carcinoma cell lines (DU145, A549 and ACHN) were grown in RPMI 1640 medium containing 10% FBS and L-glutamine.
Confluent cells in 24-well plates were washed twice with phosphate-buffered saline (PBS). At 4° C. various concentrations of peptides or peptidomimetics diluted in binding medium (Dulbecco's modified Eagle's medium, 25 mM HEPES pH 7.3 containing 0.1% BSA) were added, followed by addition of 0.1 nM of ^125I-VEGF-A165 (1200-1800 Ci/mmol, GE Healthcare). After 2 h of incubation at 4° C., the medium was aspirated and washed 4 times with cold PBS. The cells were lysed with 0.25 M NaOH, 0.5% SDS solution, and the bound radioactivity of the lysates was measured in a γ counter. Non-specific binding was determined in the presence of 100-fold excess unlabelled VEGF-A165.

[2] = system: DU145 cancer cells; assay: Cell-matrix adhesion (Innocyte ECM cell adhesion assay); type: cell-based, Human; conditions: concentrations from 10-100 μM
Method: as §1
Cell adhesion to extracellular matrix proteins (basement membrane protein complex, laminin I, collagen IV, fibronectin or vitronectin) was measured by the Innocyte ECM cell adhesion assay (Calbiochem). Cells were detached with a non-enzyme cell dissociation solution (Sigma), washed and resuspended in RPMI 1640 medium. Cells with or without peptidomimetic treatment were seeded at 3×10^4 cells per matrix-coated well of 96-well plates. After 1.5 h incubation, cells were washed with PBS. The attached cells were labelled with the green fluorescent dye calcein-AM and measured using a fluorescence plate reader at an excitation wavelength of 485 nm and an emission wavelength of 520 nm.

[3] = system: A549 cells; assay: Cell migration (chemotaxis transwell); type: cell-based, Human; conditions: concentrations from 10-100 μM
Method: as §1
(§2) Cell migration was measured in chemotaxis 24-transwell plates with collagen 1-coated inserts. The various concentrations of serum in RPMI 1640/0.1% BSA were placed in the bottom wells of the plates, while top inserts incorporating PET (polyethylene terephthalate) track-etched membranes with 8 micron pores (Becton Dickinson Biosciences) were placed over the bottom wells. Cells were trypsinised, washed and resuspended in RPMI 1640/0.1% BSA. 1.5×10^6 cells with or without peptide or peptidomimetic treatment as indicated were loaded into each top inserts, and the chemotaxis trans-well plates were incubated at 37° C. for 4 h. After the incubation, non-migrated cells on the top side of the trans-well membranes were removed, and migrated cells on the under side of the trans-well membranes were stained with the REASTAIN Quick-Diff kit (REAGENA). The stained cells from each well were counted in 4 fields at ×100 magnification using an eyepiece indexed graticule (100 grids).

[4] = system: ACHN cells; assay: Cell migration (chemotaxis transwell); type: cell-based, Human; conditions: concentrations from 10-100 μM
Method: as §1, §2

[5] = system: A549 cells; assay: Cell viability (XTT); type: cell-based, Human; conditions: concentration of 100 μM
Method: Human carcinoma cell lines (DU145, A549 and ACHN) were grown in RPMI 1640 medium containing 10% FBS and L-glutamine. Cell Viability Cell viability was determined by measurement of conversion of the tetrazolium salt XTT to form formazon dye. Carcinoma cells were seeded at a density of 4×10^3 cells per well in 96-well plates in the absence or presence of NP-1 peptide or peptidomimetic antagonists. After 44 h incubation, XTT labelling reagent mixture (Roche) was added to the cultures and they were incubated for a further 4 h. The formazon production was then measured at A490 nm with a reference wavelength at 595 nm.

T1 sequence (O14786 22-923): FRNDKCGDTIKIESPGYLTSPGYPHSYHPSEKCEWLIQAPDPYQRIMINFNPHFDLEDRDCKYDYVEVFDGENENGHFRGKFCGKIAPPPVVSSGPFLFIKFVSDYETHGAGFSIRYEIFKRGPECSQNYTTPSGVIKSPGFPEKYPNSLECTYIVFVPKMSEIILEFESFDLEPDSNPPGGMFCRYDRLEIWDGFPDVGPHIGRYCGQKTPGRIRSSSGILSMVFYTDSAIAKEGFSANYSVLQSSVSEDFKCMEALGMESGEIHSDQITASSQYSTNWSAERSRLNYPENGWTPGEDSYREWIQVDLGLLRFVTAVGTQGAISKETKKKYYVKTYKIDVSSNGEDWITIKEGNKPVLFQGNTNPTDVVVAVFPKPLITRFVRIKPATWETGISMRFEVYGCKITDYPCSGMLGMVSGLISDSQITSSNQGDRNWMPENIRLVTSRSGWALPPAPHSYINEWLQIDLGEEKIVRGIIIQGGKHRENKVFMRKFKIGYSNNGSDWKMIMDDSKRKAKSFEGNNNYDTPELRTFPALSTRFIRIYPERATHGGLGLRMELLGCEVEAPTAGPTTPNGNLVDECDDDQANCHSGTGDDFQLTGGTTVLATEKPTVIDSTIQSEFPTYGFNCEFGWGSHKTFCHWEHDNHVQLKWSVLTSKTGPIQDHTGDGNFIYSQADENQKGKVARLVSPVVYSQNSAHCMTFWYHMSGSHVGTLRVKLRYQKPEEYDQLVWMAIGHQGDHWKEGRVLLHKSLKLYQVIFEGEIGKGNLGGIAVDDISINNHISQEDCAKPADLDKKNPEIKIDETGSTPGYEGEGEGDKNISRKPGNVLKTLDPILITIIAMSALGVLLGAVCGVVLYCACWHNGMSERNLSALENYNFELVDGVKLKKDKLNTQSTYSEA

N=C(N)NCCC[C@H](NC(=O)c1sccc1NS(=O)(=O)c1ccc(N)cc1)C(=O)O [EG00144, (S)-2-{[3-(4-Amino-benzenesulfonylamino)-thiophene-2-carbonyl]-amino}-5-guanidino-pentanoic acid]
IC50 [1]: < 20 µM
inhibiting the adhesion of DU145 cancer cells to extracellular matrix proteins [2]: effective
migration of A549 cells [3]: decreased migration
migration of ACHN cells [4]: decreased migration

N=C(N)NCCC[C@H](NC(=O)c1sccc1NS(=O)(=O)c1cccc2nsnc12)C(=O)O [EG00229, (S)-2-{[3-(Benzo[1,2,5]thiadiazole-4-sulfonylamino)-thiophene-2-carbonyl]-amino}-5-guanidino-pentanoic acid]
IC50 [1]: < 20 µM
viability of A549 cells [5]: reduced the viability
